One assay deals with T1, 6xHis-JsBEAT2.
T1 construct: full-length cDNA, N-terminal 6xHis tag (pQE30), E. coli M15, Ni-NTA purified
Nature of the assay: GC-MS of benzyl acetate formed, curve fit. The note with it: 250 mM Tris-HCl pH 7.5, 25 mM MgCl2, 25 mM KCl, 10 mM β-mercaptoethanol, 30 °C, 1 h. Type of assay: biochemical, Jasminum sambac. From the text: GC-MS of benzyl acetate formed, curve fit on 6xHis-JsBEAT2

The subject of a further assay is T2, GST-JsBEAT1.
T2 construct: tag kept
Nature of the assay: GC-MS of benzyl acetate formed, curve fit. In kind it is biochemical, Jasminum sambac. The note with it: 250 mM Tris-HCl pH 7.5, 25 mM MgCl2, 25 mM KCl, 10 mM β-mercaptoethanol, 30 °C, 1 h. An excerpt: GC-MS of benzyl acetate formed, curve fit on GST-JsBEAT1

Data on two molecules can be found in publication PMC8747370, “Characterization of Two BAHD Acetyltransferases Highly Expressed in the Flowers of Jasminum sambac (L.) Aiton” (Plants, 2021).

For orientation: Km means the concentration of substrate that gives half-maximal velocity.

Take `OCc1ccccc1` [benzyl alcohol]: the Michaelis-Menten constant (Km) in the assay on 6xHis-JsBEAT2 (with acetyl-CoA (fixed concentration not restated)) was determined as 279 ± 26.5 µM; with GST-JsBEAT1 (300 μM acetyl-CoA (fixed)), 447 ± 108 µM.
As to `CC(=O)SCCNC(=O)CCNC(=O)[C@H](O)C(C)(C)COP(=O)(O)OP(=O)(O)OC[C@H]1O[C@@H](n2cnc3c(N)ncnc32)[C@H](O)[C@@H]1OP(=O)(O)O` [acetyl-CoA], the results for the Michaelis-Menten constant (Km) in the assay on 6xHis-JsBEAT2 (with benzyl alcohol (fixed concentration not restated)) and in the assay on GST-JsBEAT1 (300 μM benzyl alcohol (fixed)) were 317 ± 31.7 µM and 546 ± 94.5 µM, respectively.
